Test results reported in ChEMBL document CHEMBL1158575, “Glutarimide alkaloids and a terpenoid benzoquinone from Cordia globifera” (J Nat Prod, 2010).
Calls of active or inactive are those of the source. The rule behind the calls is not given here.

Tests used:
MOLT-3 = assay: Cytotoxicity against human MOLT3 cells XTT assay; format: functional, cell-based
RAW264.7 = assay: Inhibition of superoxide anion radical formation in mouse RAW264.7 cells by xanthine/xanthine oxidase assay; format: functional, cell-based
HepG2 = assay: Cytotoxicity against human HepG2 cells MTT assay; format: functional, cell-based
A549 = assay: Cytotoxicity against human A549 cells MTT assay; format: functional, cell-based
HuCC-A1 = assay: (§1) Cytotoxicity against human HuCCa1 cells MTT assay; format: functional, cell-based
HL-60 = assay: Suppression of TPA-induced superoxide anion generation in differentiated human HL60 cells at 100 uM; format: functional
[1] = as §1; format: functional, cell-based; settings: HuCC-A1

IC50 (RAW264.7) [µM] | Structure (SMILES) | IC50 (MOLT-3) [µM] | Activity (HepG2) | Activity (A549) | Activity (HuCC-A1) | Activity (HL-60) [%] | IC50 (HepG2) [µM] | IC50 (A549) [µM] | IC50 [1] [µM]
54.1 | CC(=O)N[C@H]1CCC(=O)N(CC(=O)c2ccccc2)C1=O [CORDIARIMIDE A] | 145 | inactive | inactive | inactive | – | – | – | –
21.7 | CC(=O)N[C@H]1CCC(=O)N(C[C@H](O)c2ccccc2)C1=O [CORDIARIMIDE B] | 44.5 | inactive | inactive | inactive | 54 | – | – | –
– | C[C@@]12CC3=C(C[C@H]1[C@]1(C)C[C@@H]1C2)C(=O)C=CC3=O [GLOBIFERANE] | 3.7 | – | – | – | – | 149 | 149 | 66
